Experimental data taken from patent US20230310539A1, “TREATMENT OF DISEASE WITH EPOR ANTAGONIST” (Epo-Med Inc., priority 2020, published 2023).
Where a SMILES comes first, the peptide text is derived from it. Bridges are numbered along the chain shown (N, C = ends). [ ]: non-standard residue; d: D form. Ala(benzothiazol-2-yl) = N[C@@H](Cc1nc2ccccc2s1)C(=O)O; NH = not defined here

B1: human erythropoietin receptor (EpoR), wild-type (receptor)
chain: APPPNLPDPKFESKAALLAARGPEELLCFTERLEDLVCFWEEAASAGVGPGNYSFSYQLEDEPWKLCRLHQAPTARGAVRFWCSLPTADTSSFVPLELRVTAASGAPRYHRVIHINEVVLLDAPVGLVARLADESGHVVLRWLPPPETPMTSHIRYEVDVSAGNGAGSVQRVEILEGRTECVLSNLRGRTRYTFAVRARMAEPSFGGFWSAWSEPVSLLTPSDLDPLILTLSLILVVILVLLTVLALLSHRRALKQKIWPGIPSPESEFEGLFTTHKGNFQLWLYQNDGCLWWSPCTPFTEDPPASLEVLSERCWGTMQAVEPGTDDEGPLLEPVGSEHAQDTYLVLDKWLLPRNPPSEDLPGPGGSVDIVAMDEGSEASSCSSALASKPSPEGASAASFEYTILDPSSQLLRPWTLCPELPPTPPHLKYLYLVVSDSGISTDYSSGDSQGAQGGLSDGPYSNPYENSLIPAAEPLPPSYVACS
notes: Endogenous on human AsPC-1, HCC1806 and UT-7/Epo cells, or overexpressed from a vector in AsPC-1 and 293T cells; also called Epo receptor; wild-type EpoR

Legend:
[1] = Body weight of AsPC-1 cancer bearing mice; assay type: in vivo, mouse; settings: ERA-350 0.2 mg/day intraperitoneally, twice a week for 4 weeks
Description: AsPC-1 cells cultured in the similar manner as Example 1 were collected, suspended in RPMI-1640 medium containing 10% Matrigel (BD Bioscience, 354234), and transplanted subcutaneously to the right side on the back of a 6-week-old male nude mouse (Japan SLC, BALB/cSlc-nu/nu) (5×10^6/0.1 mL/mouse). The length (L) and width (W) of the tumor were measured using a digital caliper. When the tumor volume (V) calculated from the formula V=L×W^2/2 reached about 150 to 200 mm^3, the mice were separated into groups and administered with test compounds (ERA-350 and ERA-350+gemcitabine). Saline was administered to a control group. The compounds were administered intraperitoneally (0.1 mL/mouse, 6 mice/test compound) once daily (0.2 mg/day for ERA-350, and 1 mg/day for gemcitabine), twice a week for 4 weeks. The tumor size and body weight were measured twice a week to monitor the effect of the administration of test compounds.

EpoR in HCC1806 cells = target: T1, EpoR in HCC1806 cells (Homo sapiens, UniProt P19235); experiment: Immunofluorescence co-localization of biotin-labeled anti-EpoR peptide with EpoR in HCC1806 cells; assay type: cell-based; settings: 100 μM, 1 hour at 37° C.
T1 construct: human breast cancer derived HCC1806 cells (ATCC, CRL-2335); host or cells: HCC1806
T1 sequence (P19235 25-508): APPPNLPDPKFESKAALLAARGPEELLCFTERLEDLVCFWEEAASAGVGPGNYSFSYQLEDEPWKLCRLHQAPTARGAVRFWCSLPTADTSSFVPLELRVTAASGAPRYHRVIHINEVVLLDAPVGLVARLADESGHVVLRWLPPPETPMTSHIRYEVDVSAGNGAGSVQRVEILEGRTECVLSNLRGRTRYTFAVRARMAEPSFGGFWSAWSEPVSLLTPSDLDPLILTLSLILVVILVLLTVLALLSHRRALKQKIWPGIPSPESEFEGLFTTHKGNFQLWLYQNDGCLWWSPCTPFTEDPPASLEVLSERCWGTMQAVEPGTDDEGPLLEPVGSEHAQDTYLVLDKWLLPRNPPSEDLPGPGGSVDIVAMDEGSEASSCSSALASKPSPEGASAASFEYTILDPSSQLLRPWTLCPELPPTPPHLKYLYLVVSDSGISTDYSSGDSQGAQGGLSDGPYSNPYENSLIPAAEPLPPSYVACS
Description: (§1) The test used human pancreatic cancer derived AsPC-1 cells (ECACC, 96020930) and human breast cancer derived HCC1806 cells (ATCC, CRL-2335) that were passaged (twice/week) under the condition of 37° C. and 5% CO2-95% air using RPMI-1640 medium (Sigma, R8758-500 ML) containing 10% fetal bovine serum (biowest, S182H-500) and 1 mM sodium pyruvate (gibco, 11360-070).
(§2) These bone marrow cells (2×10^6 cells) and cancer cells (AsPC-1 cells and HCC1806 cells; both 2×10^3 cells) were incubated with GT-11352 (biotin labeled, 100 μM) for 1 hour at 37° C. in the presence or absence of recombinant human erythropoietin (rhEpo) (10 U/mL). Subsequently, the cells were fixed with formalin, blocked, and subjected to immunofluorescent staining. The nucleus was stained by DAPI staining. The cells were observed through fluorescence with a microscope (Keyence, BZ-X800). The following antibodies were used. • EpoR detection: rat anti-EpoR antibody (Merck, clone BCO-3H2) and anti-rat IgG-Alexa® Fluor 594 (Abcam, ab150160) • GT-11352 detection: streptavidin-FITC (Tokyo Chemical Industry, S0966)

EpoR in AsPC-1 cells = target: T2, EpoR in AsPC-1 cells (Homo sapiens, UniProt P19235); experiment: Immunofluorescence co-localization of biotin-labeled anti-EpoR peptide with EpoR in AsPC-1 cells; assay type: cell-based; settings: 100 μM, 1 hour at 37° C.
T2 construct: The test used human pancreatic cancer derived AsPC-1 cells (ECACC, 96020930); host or cells: AsPC-1
T2 sequence (P19235 25-508): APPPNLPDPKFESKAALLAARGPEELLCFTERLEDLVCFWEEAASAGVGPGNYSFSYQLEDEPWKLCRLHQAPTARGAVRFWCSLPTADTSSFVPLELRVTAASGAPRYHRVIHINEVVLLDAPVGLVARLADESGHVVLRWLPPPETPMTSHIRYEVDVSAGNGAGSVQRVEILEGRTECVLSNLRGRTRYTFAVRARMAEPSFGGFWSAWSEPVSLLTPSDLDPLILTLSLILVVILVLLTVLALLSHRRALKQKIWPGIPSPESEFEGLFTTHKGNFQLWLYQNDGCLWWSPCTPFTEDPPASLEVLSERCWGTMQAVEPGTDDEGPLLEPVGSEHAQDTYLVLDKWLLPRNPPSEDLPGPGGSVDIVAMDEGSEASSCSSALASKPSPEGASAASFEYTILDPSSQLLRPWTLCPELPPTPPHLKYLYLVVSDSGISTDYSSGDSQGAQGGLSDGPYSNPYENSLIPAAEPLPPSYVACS
Description: as §1, §2

[2] = target: T3, EpoR in bone marrow cells (Mus musculus, UniProt P14753); experiment: Immunofluorescence co-localization of biotin-labeled anti-EpoR peptide with EpoR in bone marrow cells; assay type: cell-based; settings: 100 μM, 1 hour at 37° C.
T3 construct: tissue Japan SLC; host or cells: mouse (ICR, female) femur bone marrow cells
T3 sequence (P14753 25-507): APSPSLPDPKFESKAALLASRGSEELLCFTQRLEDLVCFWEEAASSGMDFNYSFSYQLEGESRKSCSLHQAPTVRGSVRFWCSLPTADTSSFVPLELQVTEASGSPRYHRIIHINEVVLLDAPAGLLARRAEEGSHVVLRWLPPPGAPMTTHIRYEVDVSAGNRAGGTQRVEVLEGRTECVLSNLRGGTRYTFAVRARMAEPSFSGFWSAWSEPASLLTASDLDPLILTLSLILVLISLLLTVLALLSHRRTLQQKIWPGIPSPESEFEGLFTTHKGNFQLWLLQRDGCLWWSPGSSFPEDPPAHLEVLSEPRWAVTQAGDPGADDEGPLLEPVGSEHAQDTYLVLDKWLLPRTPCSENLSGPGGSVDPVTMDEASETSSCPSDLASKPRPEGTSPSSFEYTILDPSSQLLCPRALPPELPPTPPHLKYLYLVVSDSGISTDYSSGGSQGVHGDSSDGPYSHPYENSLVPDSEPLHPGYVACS
Description: Bone marrow cells were harvested from mouse femur (Japan SLC, ICR, female).
as §2

[3] = target: T4, human βcR (CD131, CSF2RB) (human, UniProt P32927 17-897); experiment: co-immunoprecipitation from membrane fractions of AsPC-1 cells (IP with anti-EpoR VP-2E8, blot with anti-EpoR BCO-3H2 or anti-βcR polyclonal antibody)
T4 construct: Endogenous on AsPC-1 and HCC1806 cells; also called βc receptor; IL3RB
T4 sequence: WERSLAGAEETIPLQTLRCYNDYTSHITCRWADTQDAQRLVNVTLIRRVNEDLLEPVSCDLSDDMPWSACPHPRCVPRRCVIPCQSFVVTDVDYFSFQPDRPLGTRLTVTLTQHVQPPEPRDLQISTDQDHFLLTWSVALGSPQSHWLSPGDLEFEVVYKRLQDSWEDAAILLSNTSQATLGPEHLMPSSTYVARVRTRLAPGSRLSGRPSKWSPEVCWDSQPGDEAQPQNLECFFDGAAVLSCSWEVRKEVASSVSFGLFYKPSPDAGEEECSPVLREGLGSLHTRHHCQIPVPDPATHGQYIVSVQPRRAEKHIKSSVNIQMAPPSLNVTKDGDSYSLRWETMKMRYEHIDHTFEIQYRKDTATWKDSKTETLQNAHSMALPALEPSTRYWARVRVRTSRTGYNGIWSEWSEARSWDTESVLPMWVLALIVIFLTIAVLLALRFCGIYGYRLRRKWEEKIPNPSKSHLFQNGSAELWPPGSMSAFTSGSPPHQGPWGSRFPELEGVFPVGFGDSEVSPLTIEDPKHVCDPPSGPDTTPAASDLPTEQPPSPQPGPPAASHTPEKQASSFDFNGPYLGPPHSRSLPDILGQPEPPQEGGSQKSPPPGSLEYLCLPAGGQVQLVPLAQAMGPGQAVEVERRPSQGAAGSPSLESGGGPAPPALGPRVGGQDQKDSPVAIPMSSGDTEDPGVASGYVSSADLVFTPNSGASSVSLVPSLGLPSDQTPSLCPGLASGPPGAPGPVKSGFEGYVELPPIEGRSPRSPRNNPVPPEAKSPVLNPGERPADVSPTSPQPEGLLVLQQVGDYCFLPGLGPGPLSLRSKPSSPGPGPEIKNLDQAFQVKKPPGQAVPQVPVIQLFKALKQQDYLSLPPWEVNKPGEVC
Description: The stable expression strain was cultured and collected. Membrane fractions were prepared using a commercially available membrane protein extraction kit (Mem-PER Plus Membrane Protein Extraction Kit, Thermo Scientific).

[4] = target: B1; experiment: immunofluorescence colocalization on AsPC-1 and HCC1806 cells, GT-11352 100 µM, no rhEpo

Molecule: CSCC[C@@H]1NC(=O)[C@@H]2CCCN2C(=O)CNC(=O)[C@H](Cc2ccc(O)cc2)NC(=O)[C@H](Cc2c[nH]cn2)NC(=O)[C@@H](NC(=O)[C@H](CO)NC(C)=O)CSSC[C@@H](C(=O)N[C@@H](CCCCN)C(N)=O)NC(=O)[C@H](C(C)C)NC(=O)[C@H](Cc2nc3ccccc3s2)NC(=O)[C@H]([C@@H](C)O)NC1=O [ERA-350] (Ac-SCHYGPMT[Ala(benzothiazol-2-yl)]VCK-NH2; disulfide 2-11)
- Body weight [1]: did not affect the body weight

Molecule: Ac-SCHYGPLT (2-benzothiazolylalanine)VCK-NH-(biotin) [GT-11352]
- Co-localization of EpoR and peptide (EpoR in HCC1806 cells; absence of erythropoietin): exhibited colocalization
- Co-localization of EpoR and peptide (EpoR in HCC1806 cells; presence of rhEpo 10 U/mL): exhibited colocalization
- Co-localization of EpoR and peptide (EpoR in AsPC-1 cells; absence of erythropoietin): exhibited colocalization
- Co-localization of EpoR and peptide (EpoR in AsPC-1 cells; presence of rhEpo 10 U/mL): exhibited colocalization
- Co-localization of EpoR and peptide ([2]; absence of erythropoietin): exhibited colocalization
- Co-localization of EpoR and peptide ([2]; presence of rhEpo 10 U/mL): did not exhibit co-localization

Molecule: B1
- binding result [3]: binds

B2: Ac-SCHYGPLT (2-benzothiazolylalanine)VCK-NH-(biotin) (GT-11352) (peptide)
peptide: Ac-SCHYGPLT[Ala(benzothiazol-2-yl)]VCK-{NH-biotin}
modifications: disulfide 2-11; reading uncertain; also: printed as Ac-SCHYGPLT (2-benzothiazolylalanine)VCK-NH-(biotin)
notes: Synthetic, biotin-labeled peptide; also called anti-EpoR peptide
- binding result [4]: binds
